From US6432711B1, “Embryonic stem cells capable of differentiating into desired cell lines” (Diacrin, Inc., priority 1993, dated 2002)

Legend:
Format in all cases: cell-based
[1] = tested on: embryonic stem cells (ES-E14TG2a); assay: Differentiation of embryonic stem cells into neuronal cells by retinoic acid induction; details: 0.5 μM retinoic acid, aggregates induced four days in DMEM plus 10% FBS, then cultured 5 days in stem cell medium on poly-D-lysine
Text: Undifferentiated embryonic stem cells (ES-E14TG2a, purchased from the American Type Culture Collection, catalog no. ATCC CRL 1821) are maintained in Dulbecco's modified Minimal Essential Medium (DMEM) supplemented with glutamine, β-mercaptoethanol, 10% (by volume) horse serum, and human recombinant Leukemia Inhibitory Factor (LIF). The LIF replaces the need for maintaining embryonic stem cells on feeder layers of cells, and is essential for maintaining embryonic stem cells in an undifferentiated state.
In order to promote the differentiation of the embryonic stem cells into neuronal cells, the embryonic stem cells are trypsinized and washed free of LIF, and placed in DMEM supplemented with 10% (by volume) fetal bovine serum (FBS). After resuspension in DMEM and 10% FBS, 1×10^6 cells are plated in 5 ml DMEM plus 10% FBS plus 0.5 μM retinoic acid in a 60 mm Fisher brand bacteriological grade Petri dish. In such Petri dishes, embryonic stem cells cannot adhere to the dish, and instead adhere to each other, thus forming small aggregates of cells. Aggregation of cells aids in enabling proper cell differentiation. After two days, aggregates of cells are collected and resuspended in fresh DMEM plus 10% FBS plus 0.5 μM retinoic acid, and replated in Petri dishes for an additional two days. […]

[2] = tested on: embryonic stem cells (ES-D3); assay: Differentiation of embryonic stem cell aggregates into contracting muscle cells by dimethylsulfoxide induction; details: 1% (by volume) dimethylsulfoxide in DMEM plus 10% horse serum, aggregates cultured 5 days in multi-well dishes
Text: Undifferentiated embryonic stem cells (ES-D3, purchased from the American Type Culture Collection as ATCC catalog no. ATCC CRL 1934) are maintained in supplemented Dulbecco's modified Minimal Essential Medium as described in Example 1. The embryonic stem cells then are trypsinized and washed free of LIF and placed in 1% (by volume) dimethylsulfoxide in DMEM plus 10% horse serum. Two days after the addition of dimethylsulfoxide and plating of cells in Petri dishes to form aggregates, the aggregates are collected and resuspended in fresh medium plus 1% dimethylsulfoxide. The aggregates are then plated onto multi-well untreated culture grade dishes without trypsin treatment. One aggregate is plated per well. The aggregates are cultured for 5 days. Upon culturing of the cells in multi-well dishes, cell cultures in which greater than 80% of the aggregates contain contracting muscle cells are obtained. Such cells may be used to treat cardiomyopathies, myocardial infarction, congestive heart failure, or muscular dystrophy.

[3] = tested on: D3 and E14 TG2a embryonic stem cell lines transfected with mouse MyoD cDNA; assay: Differentiation of MyoD-transfected embryonic stem cell lines into muscle after dimethylsulfoxide induction
Method: For transfection of embryonic stem cells with mouse MyoD cDNA, both the D3 (ATCC catalog no. CRL 1934) and E14 TG2a (ATCC catalog no. CRL 1821) embryonic stem cell lines were used. Embryonic stem cells were cultured as described in Robertson, 1987, except that the cells were maintained in media containing 5 ng/ml human recombinant leukemia inhibitory factor instead of on feeder layers.
Embryonic stem cells were co-transfected with pKJ1-Neo (Dinsmore, et al., Cell, Vol. 64, pgs. 817-826 (1991)), which carries the neomycin resistance gene for selection of stable transfectants, and with pEMCII (Davis, et al., Cell, Vol. 51, pgs. 987-1000 (1987)), which contains a portion of the mouse MyoD cDNA. pKJ1-Neo was linearized at the unique NsiI site and pEMCII was linearized at the unique ScaI site. In order to introduce the linearized plasmids into the embryonic stem cells, the embryonic stem cells were electroporated using a Gene Pulser (Bio Rad) in 0.4 cm gap distance electroporation cuvettes with the Gene Pulser set at 240 volts, 500μ Farads. […]
Stable transfectants were isolated, expanded, frozen, and then stored in liquid nitrogen. […] The percentage of cells that differentiated into skeletal muscle was greater than 90% as assessed by staining for muscle specific myosin, and by the ability of these cells to fuse and form myotubes that spontaneously twitch. […]

Row | Compound | percentage of cells in the culture that are neuronal cells [1] | percentage of aggregates that contain contracting muscle cells [2] | cell types obtained after induction ([3]; MyoD transformants expressing very low amounts of MyoD, indistinguishable from non-transfected embryonic stem cells) | percentage of cells that differentiated into skeletal muscle ([3]; cell lines expressing high amounts of MyoD, staining for muscle specific myosin, fusion into twitching myotubes)
1 | CC1=C(/C=C/C(C)=C/C=C/C(C)=C/C(=O)O)C(C)(C)CCC1 [retinoic acid] | greater than 90% |  |  | 
2 | C[S+](C)[O-] [dimethylsulfoxide] |  | greater than 80% | mix of cardiac, smooth, and skeletal muscle | greater than 90%
